Some results are limits rather than exact numbers.

This note sets out measurements from patent US11566017B2, “Dihydroquinazolinone compound or pharmacologically acceptable salt, and cell growth inhibitor” (RIKEN, priority 2017, dated 2023).

One assay concerns the target T1, tankyrase 2 (TNKS2) (Homo sapiens, UniProt Q9H2K2).
T1 construct: tankyrase 2 (613-1,116aa, ANK5+SAM+PARP); made in house; host or cells: cell-free protein expression system
The experiment in a line: Tankyrase inhibitory activity test (ELISA, auto-poly(ADP-ribosyl)ation), tankyrase 2. The format is biochemical. As to conditions: Flag tagged tankyrase 2 (613-1,116aa, ANK5+SAM+PARP); read-out: TNKS2 (inhibitory activity against tankyrase 2, IC50). On the procedure: (§1) The enzymatic activity of tankyrase 1 and the enzymatic activity of tankyrase 2 were measured by the ELISA method based on assessment of auto-poly(ADP-ribosyl)ation to evaluate the tankyrase inhibitory activity of the compound prepared in each of Examples (test compound) (inhibitory activity against tankyrase 1 (TNKS1) and inhibitory activity against tankyrase 2 (TNKS2)). First, Flag tagged tankyrase 1 (1,024-1,327aa, SAM+PARP) and tankyrase 2 (613-1,116aa, ANK5+SAM+PARP) were synthesized with a cell-free protein expression system, and diluted with a Tris buffer solution (50 mM Tris-HCl (pH 8.0), 150 mM NaCl, 10% glycerol). 50 μL of the diluted tankyrase 1 or tankyrase 2 was added to a plate with an anti-FLAG M2 monoclonal antibody immobilized thereon (Anti-FLAG High-Sensitivity M2-Coated Plate) (Sigma-Aldrich), and the plate was left standing overnight at 4° C. Thereafter, the plate was washed four times with a PBS (PBST) buffer containing 0.1% Triton X-100. For Example 84, the Anti-FLAG High-Sensitivity M2-Coated Plate was replaced by an immunoplate (Thermo Fisher Scientific), tankyrase 1 or tankyrase 2 was immobilized on the immunoplate, and the immunoplate was then blocked with Blocking One (nacalai tesque), then washed with a PBS (PBST) buffer, and used as the following plate.
(§2) Subsequently, the test compound diluted with an assay buffer (50 mM Tris-HCl (pH 8.0), 4 mM MgCl2, 0.2 mM DTT) (DMSO was used as a control) was added to each well of the plate, and the plate was left standing at room temperature for 10 minutes. Thereafter, a biotin-labeled NAD solution (225 μM NAD, 25 μM 6-Biotin-17-NAD (Travigen, Inc.)) was added and mixed as a donor substrate, and the mixture was reacted at 30° C. for 45 minutes. To blank wells was added distilled water instead of the biotin-labeled NAD solution. After the reaction, the plate was washed with a PBST buffer four times. Thereafter, HRP (horseradish peroxidase)-labeled streptavidin (Travigen, Inc.) was diluted with a PBS buffer by 1,000 times, and added to each well, and the mixture was reacted at room temperature for 20 minutes. The plate was washed with a PBST buffer four times, a chemiluminescent substrate solution TACS-Sapphire (Travigen, Inc.) was then added to each well, the mixture was reacted at room temperature for 20 minutes, and the chemiluminescence intensity was measured using a chemiluminescence measuring apparatus. For Example 84, the streptavidin was diluted by 5,000 times, the chemiluminescent substrate solution TACS-Sapphire was replaced by an ELISA POD substrate TMB solution easy (nacalai tesque), the mixture was reacted at room temperature for 30 minutes, and the chemiluminescence intensity was measured using a chemiluminescence measuring apparatus.
(§3) The residual enzymatic activity in the presence of the test compound was determined from the following expression. On the basis of the residual enzymatic activity at each of multiple concentrations of the test compound, the enzyme inhibitory activity was calculated in terms of a 50%-inhibition concentration (IC50 value) using data analysis software Origin (LightStone Corp.). Residual activity (%)={(chemiluminescence intensity with test compound added)−(chemiluminescence intensity of blank)}/{(chemiluminescence intensity of control)−(chemiluminescence intensity of blank)}
(In an ELISA, binding on a coated surface is turned into a signal by an enzyme label.)

The test system of assay [1] is human colorectal cancer cell line COLO-320DM. The experiment in a line: Cell proliferation inhibitory activity test (Celltiter-Glo). The format is cell-based. The note with it: COLO-320DM cells, 96 hours. The protocol: The cell proliferation inhibitory activity of the compound, which had been prepared in each of Examples, against the human colorectal cancer cell line COLO-320DM was evaluated by Celltiter-Glo Luminescent Cell Viability Assay (Promega Corporation; G7573). COLO-320DM cells were cultured in RPMI-1640 medium containing 2 mM glutamine (Wako Pure Chemical Industries, Ltd; 189-02025) supplemented with 10% fetal bovine serum. The cultured cells were washed with PBS, and then dissociated with trypsin/EDTA, and a cell solution with 3×10^4 cells/mL was prepared.
Subsequently, the cell solution was seeded in a 96-well microplate (Thermo/Nunc Company; 136101) in an amount of 70 μL per well, and cultured overnight under the condition of 37° C. and 5% CO2. Next day, a test compound solution obtained by diluting the test compound (DMSO solution) with a cell culture medium (final concentration of DMSO was 1%) was added in an amount of 10 μL per well, and the mixture was reacted under the condition of 37° C. and 5% CO2 for 96 hours (a 1% DMSO solution was used as a control). Thereafter, a Celltiter-GloLuminescent Cell Viability Assay reagent (Promega Corporation; G7573) was added in an amount of 80 μL per well, the mixture was stirred with a shaker for 2 minutes while light was blocked with an aluminum foil, and the mixture was incubated at room temperature for 10 minutes.
Thereafter, a luminescence signal was measured with a luminometer (Biotech Company; Synergy). The ratio of cell proliferation in each compound addition group to cell proliferation in a control group containing no test compound solution, where cell proliferation in the control group is 100%, was calculated and the value of a compound concentration necessary for suppressing the amount of residual cells to 50% of that in the control (GI50) was calculated as the cytostatic activity. […] An unevaluated test compound was designated as “NT”.
In general terms: ATP-based viability assays read luminescence as a measure of living cells.

The next assay addresses T2, tankyrase 1 (TNKS1) (Homo sapiens, UniProt O95271).
T2 construct: tankyrase 1 (1,024-1,327aa, SAM+PARP); made in house; host or cells: cell-free protein expression system
The experiment in a line: Tankyrase inhibitory activity test (ELISA, auto-poly(ADP-ribosyl)ation), tankyrase 1. The format is biochemical. As to conditions: Flag tagged tankyrase 1 (1,024-1,327aa, SAM+PARP); read-out: TNKS1 (inhibitory activity against tankyrase 1, IC50). On the procedure: as §1, §2, §3

T2 sequence (O95271 1024-1327): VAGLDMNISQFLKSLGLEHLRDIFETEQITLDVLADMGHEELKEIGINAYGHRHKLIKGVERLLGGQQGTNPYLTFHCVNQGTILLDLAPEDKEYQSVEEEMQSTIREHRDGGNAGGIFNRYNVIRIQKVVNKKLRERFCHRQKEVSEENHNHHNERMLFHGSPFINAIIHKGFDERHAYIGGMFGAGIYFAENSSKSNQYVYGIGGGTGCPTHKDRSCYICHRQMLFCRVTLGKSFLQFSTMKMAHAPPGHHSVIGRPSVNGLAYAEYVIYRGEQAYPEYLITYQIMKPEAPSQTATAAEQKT

The term IC50 denotes the midpoint of a concentration-inhibition curve. As a reminder, the GI50 is the concentration at which growth is held to half of that of the control. Consider `CCN1c2ccccc2C(=O)NC1c1c[nH]nc1-c1ccc(C(=O)OC)cc1` (stereo not drawn) [Example 13, Methyl 4-[4-(1-ethyl-4-oxo-2,3-dihydroquinazolin-2-yl)-1H-pyrazol-3-yl]benzoate], for which the IC50 on tankyrase 2 (TNKS2) and on tankyrase 1 (TNKS1) was 20 to 50 nM in each case. For the same compound, the GI50 in assay [1] was no less than 10 µM.
In the case of `COc1ccc(-c2n[nH]cc2C2NC(=O)c3ccccc3N2CC2CC2)cc1` (stereo not drawn) [Example 14, 1-(Cyclopropylmethyl)-2-[5-(4-methoxyphenyl)-1H-pyrazol-4-yl]-2,3-dihydroquinazolin-4-one], the IC50 at tankyrase 2 (TNKS2) and at tankyrase 1 (TNKS1) was 20 to 50 nM in each case. Also, in assay [1], the GI50 is no less than 10 µM.
In the case of `COc1cccc(-c2n[nH]cc2C2NC(=O)c3ccccc3N2C)c1` (stereo not drawn) [Example 15, 2-[5-(3-Methoxyphenyl)-1H-pyrazol-4-yl]-1-methyl-2,3-dihydroquinazolin-4-one], the IC50 lay within 20 to 50 nM on tankyrase 2 (TNKS2) and 5 to 20 nM at tankyrase 1 (TNKS1). Moreover, in assay [1], the GI50 was no less than 10 µM.
The like results for `CN1c2ccccc2C(=O)NC1c1c[nH]nc1-c1ccc([N+](=O)[O-])cc1` (stereo not drawn) [Example 16, 1-Methyl-2-[3-(4-nitrophenyl)-1H-pyrazol-4-yl]-2,3-dihydroquinazolin-4-one] were, in that order, 20 to 50 nM, 20 to 50 nM and no less than 10 µM.
For `CN1c2ccccc2C(=O)NC1c1c[nH]nc1-c1ccc(-c2ccccc2)cc1` (stereo not drawn) [Example 17, 1-Methyl-2-[3-(4-phenylphenyl)-1H-pyrazol-4-yl]-2,3-dihydroquinazolin-4-one], the IC50 was less than 5 nM on tankyrase 2 (TNKS2) and 20 to 50 nM at tankyrase 1 (TNKS1). Further, the GI50 in assay [1] is no less than 10 µM.
The like results for `CN1c2ccccc2C(=O)NC1c1c[nH]nc1-c1ccc(Oc2ccccc2)cc1` (stereo not drawn) [Example 18, 1-Methyl-2-[3-(4-phenoxyphenyl)-1H-pyrazol-4-yl]-2,3-dihydroquinazolin-4-one] were, in that order, less than 5 nM, 20 to 50 nM and no less than 10 µM.
The like results for `CN1c2ccccc2C(=O)NC1c1c[nH]nc1-c1ccc(I)cc1` (stereo not drawn) [Example 19, 2-[3-(4-Iodophenyl)-1H-pyrazol-4-yl]-1-methyl-2,3-dihydroquinazolin-4-one] were, in that order, less than 5 nM, 5 to 20 nM and no less than 10 µM.
On the same counts, the results for `CN1c2ccccc2C(=O)NC1c1c[nH]nc1-c1cccc(Br)c1` (stereo not drawn) [Example 20, 2-[3-(3-Bromophenyl)-1H-pyrazol-4-yl]-1-methyl-2,3-dihydroquinazolin-4-one] are 5 to 20 nM, 20 to 50 nM and no less than 10 µM.
On to `CN1c2ccccc2C(=O)NC1c1c[nH]nc1-c1ccc(F)cc1` (stereo not drawn) [Example 21, 2-[3-(4-Fluorophenyl)-1H-pyrazol-4-yl]-1-methyl-2,3-dihydroquinazolin-4-one], for which the results for the IC50 on tankyrase 2 (TNKS2) and at tankyrase 1 (TNKS1) were 5 to 20 nM and 20 to 50 nM, respectively. Also, in assay [1], the GI50 is no less than 10 µM.
On the same counts, the results for `CN1c2ccccc2C(=O)NC1c1c[nH]nc1-c1cccc(-c2ccccc2)c1` (stereo not drawn) [Example 22, 1-Methyl-2-[3-(3-phenylphenyl)-1H-pyrazol-4-yl]-2,3-dihydroquinazolin-4-one] are less than 5 nM, less than 5 nM and no less than 10 µM.
With `CN1CCN(c2ccc(-c3cccc(-c4n[nH]cc4C4NC(=O)c5ccccc5N4C)c3)cc2)CC1` (stereo not drawn) [Example 23, 1-Methyl-2-[5-[3-[4-(4-methylpiperazin-1-yl)phenyl]phenyl]-1H-pyrazol-4-yl]-2,3-dihydroquinazolin-4-one], the IC50 on tankyrase 2 (TNKS2) and at tankyrase 1 (TNKS1) was 20 to 50 nM in each case. The GI50 in assay [1] fell in the range of 1 to 10 µM.
On to `CN1c2ccccc2C(=O)NC1c1c[nH]nc1-c1ccc(-c2cccc(O)c2)cc1` (stereo not drawn) [Example 24, 2-[3-[4-(3-Hydroxyphenyl)phenyl]-1H-pyrazol-4-yl]-1-methyl-2,3-dihydroquinazolin-4-one], for which the IC50 at tankyrase 2 (TNKS2) and at tankyrase 1 (TNKS1) was 5 to 20 nM in each case. Moreover, the GI50 in assay [1] is no less than 10 µM.
Take `CN1CCN(Cc2ccc(-c3ccc(-c4n[nH]cc4C4NC(=O)c5ccccc5N4C)cc3)cc2)CC1` (stereo not drawn) [Example 25, 1-Methyl-2-[5-[4-[4-[(4-methylpiperazin-1-yl)methyl]phenyl]phenyl]-1H-pyrazol-4-yl]-2,3-dihydroquinazolin-4-one]: the IC50 lay in the range of 20 to 50 nM on tankyrase 2 (TNKS2) and 5 to 20 nM on tankyrase 1 (TNKS1). Also, the GI50 in assay [1] is no less than 10 µM.
The like results for `CN1CCN(Cc2cccc(-c3ccc(-c4n[nH]cc4C4NC(=O)c5ccccc5N4C)cc3)c2)CC1` (stereo not drawn) [Example 26, 1-Methyl-2-[5-[4-[3-[(4-methylpiperazin-1-yl)methyl]phenyl]phenyl]-1H-pyrazol-4-yl]-2,3-dihydroquinazolin-4-one] were, in that order, 5 to 20 nM, 20 to 50 nM and no less than 10 µM.
The like results for `CN1c2ccccc2C(=O)NC1c1c[nH]nc1-c1ccc(OCC(F)(F)F)cc1` (stereo not drawn) [Example 27, 1-Methyl-2-[3-(4-(2,2,2-trifluoromethoxy)phenyl]-1H-pyrazol-4-yl]-2,3-dihydroquinazolin-4-one] were, in that order, 5 to 20 nM, less than 5 nM and no less than 10 µM.
The like results for `CN1c2ccccc2C(=O)NC1c1c[nH]nc1-c1cccc(F)c1` (stereo not drawn) [Example 28, 2-[3-(3-Fluorophenyl)-1H-pyrazol-4-yl]-1-methyl-2,3-dihydroquinazolin-4-one] were, in that order, 5 to 20 nM, less than 5 nM and 1 to 10 µM.
As to `CN1c2ccccc2C(=O)NC1c1c[nH]nc1-c1ccc(-c2ccc(N3CCOCC3)cc2)cc1` (stereo not drawn) [Example 29], the IC50 at tankyrase 2 (TNKS2) and at tankyrase 1 (TNKS1) was 5 to 20 nM each time. In assay [1], the GI50 was 1 to 10 µM.
For the compound `CN1c2ccccc2C(=O)NC1c1c[nH]nc1-c1cccc(-c2ccc(N3CCOCC3)cc2)c1` (stereo not drawn) [Example 30], the IC50 on tankyrase 2 (TNKS2) and at tankyrase 1 (TNKS1) was 5 to 20 nM throughout. The GI50 in assay [1] was 1 to 10 µM.
`CN1c2ccccc2C(=O)NC1c1c[nH]nc1-c1ccc(C#N)cc1` (stereo not drawn) [Example 31, 4-[4-(1-Methyl-4-oxo-2,3-dihydroquinazolin-2-yl)-1H-pyrazol-3-yl]benzonitrile]: the IC50 on tankyrase 2 (TNKS2) and at tankyrase 1 (TNKS1) was 5 to 20 nM throughout. The GI50 in assay [1] was no less than 10 µM.
Turning to `CN1CCN(Cc2ccc(-c3cccc(-c4n[nH]cc4C4NC(=O)c5ccccc5N4C)c3)cc2)CC1` (stereo not drawn) [Example 32], the IC50 on tankyrase 2 (TNKS2) and on tankyrase 1 (TNKS1) was 20 to 50 nM each time. The GI50 in assay [1] was no less than 10 µM.
